Tests used:
[1] = test system: Mycobacterium avium Chester JCM15429; experiment: Proliferation suppression against pulmonary MAC in a diluted medium (OD600); assay type: cell-based
Protocol: This test employed Mycobacterium avium Chester JCM15429, and this microbe strain was cultured in a Middlebrook 7H9 medium at 37° C. for 2 weeks. The cultured microbial solution was collected by centrifugation (3000 rpm, 10 minutes), suspended with sterilized water, and then diluted with sterilized water so that the optical density would satisfy OD600 =1.0. The resultant was diluted 2000 times (corresponding to 10^6 CFU/ml) to prepare a reaction microbial solution.
Each of the Middlebrook 7H9 test medium samples was added with 100 μl of reaction microbial solution and was statically cultured under the condition of 37° C. Here, the Middlebrook 7H9 test medium samples were prepared using 10 ml of 1/2.5 Middlebrook 7H9 medium added with
(1) 10 ml of sterilized water, (2) 10 ml of the lysozyme-chitosan complex with a concentration of 0.002% (the concentration after addition was […]), (3) 10 ml of the lysozyme-chitosan complex with a concentration of 0.02% (the concentration after addition was 0.01%), (4) 10 ml of the lysozyme-chitosan complex with a concentration of 0.2% (the concentration after addition was 0.1%), (5) 10 ml of lysozyme alone with a concentration of 0.1% (the concentration after addition was 0.05%), (6) 10 ml of chitosan alone with a concentration of 0.1% (the concentration after addition was 0.05%), and (7) 10 ml of the mixture of lysozyme and chitosan with a concentration of 0.1% (the concentration of each after addition was 0.05%).
After that, 3 ml was extracted at time intervals (0, 5, 7, and 12 days), and the optical density was measured at an absorption wavelength of 600 nm. In addition, 100 μl was extracted when necessary and seeded on the Middlebrook 7H10 agar medium, and the number of colonies produced was observed.

[2] = test system: Micrococcus luteus bacteria; experiment: Heat resistance evaluation by bacteriolytic test; assay type: physicochemical; conditions: 80° C. for 2 hours; ΔOD at 10 minutes with vs without heating; complex 5%, lysozyme 2.5% aqueous solution; FIG. 6(D)
Protocol: This test is a bacteriolytic test using Micrococcus luteus bacteria being lysozyme-sensitive bacteria. Note that the bacteriolytic activity is an activity specific to lysozyme. Lysozyme is a protein relatively stable against heat. However, it is known that this activity generally decreases considerably for lysozyme heated at 80° C. for 30 minutes.
This test employed an aqueous solution of the lysozyme-chitosan complex with a concentration of 5%, an aqueous solution of lysozyme with a concentration of 2.5%, and an aqueous solution of the mixture of lysozyme and chitosan with a concentration of […]. In addition, Micrococcus luteus bacteria manufactured by Wako Pure Chemical Industries, Ltd. were used as the use bacteria.
First, 1 g of Micrococcus luteus bacteria was weighed on the day before the test, added to 100 ml of physiological saline, and stirred overnight at 4° C. […]
In an optical density meter, 2800 μl of the test microbial solution was set to record OD (0-1) immediately before the addition of the sample. […] Since OD increased here, the highest value OD (0-2) was recorded.
Timer measurement was started after the addition of the sample to record OD at the time of 2, 4, 6, 8, and 10 minutes passed. Each test was carried out twice, and the average was calculated.
With OD for (0-2) being OD at the time of the start, Δoptical density (AOD) at each point was calculated. […]

MRSA IID 1677 [3] = experiment: Proliferation suppression against MRSA in a standard medium (colony count method); assay type: cell-based, Methicillin-Resistant Staphylococcus Aureus (MRSA)
Protocol: This test employed MRSA IID 1677, and this microbe strain was inoculated in 20 ml of a normal broth medium (manufactured by Eiken Chemical Co., Ltd., ‘Eiken’) for overnight shake culture at 37° C. The cultured microbial solution was collected by centrifugation (3000 rpm, 10 minutes), suspended with sterilized water, and then diluted with sterilized water so that the optical density would satisfy OD600=1.0. The resultant was diluted 2000 times (corresponding to 10^6 CFU/ml) to prepare a reaction microbial solution.
Here, the TSB test medium samples were prepared using 10 ml of TSB medium (BD BBL™) added with 200 μl of 1 M phosphate buffer (pH 7.0), followed by further addition of
(1) 10 ml of sterilized water, ([…]), (3) 10 ml of lysozyme alone with a concentration of 0.2% (the concentration after addition was 0.1%), (4) 10 ml of chitosan alone with a concentration of 0.2% (the concentration after addition was 0.1%), and (5) 10 ml of the mixture of lysozyme and chitosan with a concentration of 0.2% (the concentration of each after addition was 0.1%).
After that, 100 μl was extracted and seeded on the MH agar medium, and the number of colonies produced was observed (colony count method). […] Note that the results of FIG. 7 are each the average value of the values obtained by carrying out the colony count method three times.
Note that the results of FIG. 8 are each the average value obtained with two replicate samples.

[4] = test system: Pseudomonas aeruginosa PAO 1; experiment: Proliferation suppression against pseudomonas aeruginosa PAO 1 in a standard medium (colony count method); assay type: cell-based; conditions: standard TSB medium; colony count 6 hours later; complex 0.2%, others 0.1%; FIG. 10
Description: This test employed Pseudomonas aeruginosa NBRC 13275 or PAO 1, and other procedures were the same as those of [Example 5] described earlier.
Note that the results of FIG. 9 are each the average value of the values obtained by carrying out the colony count method three times and that the results of FIG. 10 are each the average value of the values obtained by carrying out the colony count method five times.

MRSA IID 1677 [5] = experiment: MRSA-resistant microbe acquisition protocol (microdilution method); assay type: cell-based, Methicillin-Resistant Staphylococcus Aureus (MRSA); conditions: subculture 25 generations; FIG. 12
Protocol: This test employed MRSA IID 1677, and a resistant microbe acquisition protocol was carried out by use of the microdilution method proposed by Japanese Society of Chemotherapy.

“lysozyme-chitosan complex: complex of lysozyme and water-soluble chitosan (molecular weight 14000 Da) bound to each other through the Maillard reaction” was tested, and the “proliferation suppression effect against pulmonary MAC over 7 days, medium with phosphate buffer” value ([1]; Middlebrook 7H9 test medium further added with 10 mM phosphate buffer (pH 7.0), FIG. 5) was “marked proliferation suppression effect”, the “proliferation suppression effect against pulmonary MAC, classified by concentration” value ([1]; diluted Middlebrook 7H9 medium, complex 0.0010, 0.01%, 0.1% after addition, FIG. 3) was “increased as the concentration of the lysozyme-chitosan complex increased” and the “proliferation suppression effect against pulmonary MAC over 7 days” value ([1]; diluted Middlebrook 7H9 medium, complex 0.1% vs lysozyme, chitosan, mixture 0.05% each, FIG. 4) was “marked proliferation suppression effect”. The “residual activity (bacteriolytic) after heating treatment” value [2] was 91.9%, the “proliferation suppression effect against MRSA (ratio of colonies produced 6 hours later to control)” value (MRSA IID 1677 [3]; standard TSB medium with phosphate buffer pH 7.0, complex 0.2%, lysozyme, chitosan, each of mixture 0.1%, FIG. 7) was “marked improvement effect compared to chitosan alone and the mixture of lysozyme and chitosan” and the “proliferation suppression effect against MRSA 9 hours later” value (MRSA IID 1677 [3]; standard TSB medium, any of the complex concentrations 0.01%, 0.05%, 0.1%, 0.2%, FIG. 8) was “sufficient proliferation suppression effect”. The “ratio of the number of MRSA colonies produced to the control” value (MRSA IID 1677 [3]; standard TSB medium, complex 0.2%, past 6 hours, FIG. 8) was roughly 0%, the “proliferation suppression effect against PAO 1” value [4] was “marked improvement effect compared to lysozyme alone, chitosan alone, and the mixture of lysozyme and chitosan” and the “change of MIC (minimum inhibitory concentration) on subculture” value (MRSA IID 1677 [5]) was “hardly changed”.

Source: patent US20190053489A1, “ANTIMICROBIAL COMPOSITION” (NATIONAL UNIVERSITY CORPORATION TOKYO MEDICAL AND DENTAL …, priority 2016, published 2019)
